Assay results: publication PMC5660082, “Bioluminescence imaging of G protein-coupled receptor activation in living mice” (Nature Communications, 2017)
Read-outs that look alike come from different tables or passages of the source.

Molecular target: T1, Sphingosine-1-phosphate receptor 1 (S1P1) (Mus musculus, UniProt O08530)
T1 construct: gene S1pr1; mouse S1pr1 coding region with C terminus linked to C-terminal firefly luciferase fragment (amino acids #394–550), S1P1–CLuc; with NLuc–β-arrestin2
T1 sequence (O08530 2-382): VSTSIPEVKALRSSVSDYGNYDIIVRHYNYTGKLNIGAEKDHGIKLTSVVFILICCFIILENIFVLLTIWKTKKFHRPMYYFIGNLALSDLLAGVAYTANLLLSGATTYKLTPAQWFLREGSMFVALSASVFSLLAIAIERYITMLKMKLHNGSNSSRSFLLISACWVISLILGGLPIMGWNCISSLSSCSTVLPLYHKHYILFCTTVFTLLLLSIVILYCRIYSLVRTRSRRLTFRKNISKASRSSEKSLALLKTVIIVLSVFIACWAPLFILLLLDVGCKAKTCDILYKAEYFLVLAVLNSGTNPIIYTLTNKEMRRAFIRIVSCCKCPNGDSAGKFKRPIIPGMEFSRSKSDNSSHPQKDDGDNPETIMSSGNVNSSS
T1 sequence (Q91YI4 whole entry partner, the tested form may be a part): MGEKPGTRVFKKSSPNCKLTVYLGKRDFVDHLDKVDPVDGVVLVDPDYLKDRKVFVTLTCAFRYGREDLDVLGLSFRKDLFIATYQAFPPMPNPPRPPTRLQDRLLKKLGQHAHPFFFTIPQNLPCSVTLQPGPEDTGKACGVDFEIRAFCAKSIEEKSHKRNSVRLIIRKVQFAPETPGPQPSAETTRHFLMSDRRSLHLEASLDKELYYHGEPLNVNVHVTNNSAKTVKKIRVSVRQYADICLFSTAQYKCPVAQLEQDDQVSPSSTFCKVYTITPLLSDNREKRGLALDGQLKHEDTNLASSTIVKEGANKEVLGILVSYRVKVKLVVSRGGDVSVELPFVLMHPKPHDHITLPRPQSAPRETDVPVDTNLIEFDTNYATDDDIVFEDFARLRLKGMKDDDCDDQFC
Test: split luciferase β-arrestin2 recruitment (bioluminescence) in knock-in mouse embryonic fibroblasts
Assay type: cell-based

Row | EC50 (read-out: EC50) [nM] | SMILES | EC50 [nM]
1 | 19.4 ± 0.8 | CCCCCCCCCCCCC/C=C/[C@@H](O)[C@@H](N)COP(=O)(O)O [S1P] | –
2 | – | CCCCCCCCCCCCCCC[C@@H](O)[C@@H](N)COP(=O)(O)O [dihydro-S1P] | 32.4 ± 0.5
